# Data taken from ChEMBL document CHEMBL1201862, “PubChem BioAssay data set” (2004).
#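 Test compounds were applied to cells in 96-well plates for 48 hours at 5 doses. At the GI50, growth is halved.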 Calls of active or inactive are those of the source. Rule as the data show it: active = GI50 up to about 1.1 µM and inactive = higher.
# Key:
# Assay in all cases: inhibition of tumour cell growth, NCI panel, 48 h
# CAKI-1 = system: CAKI-1
# HOP-18 = system: HOP-18
# M19-MEL = system: M19-MEL
# OVCAR-3 = system: OVCAR-3
# OVCAR-5 = system: OVCAR-5
# NCI-H522 = system: NCI-H522
# SF-539 = system: SF-539
# TK-10 = system: TK-10
# LOX IMVI = system: LOX IMVI
# NCI-H460 = system: NCI-H460
# SK-MEL-28 = system: SK-MEL-28
# SK-MEL-5 = system: SK-MEL-5
# U-251 = system: U-251
# NCI-H226 = system: NCI-H226
# SN12C = system: SN12C
# HCC 2998 = system: HCC 2998
# COLO 205 = system: COLO 205
# SF-295 = system: SF-295
# CCRF-CEM = system: CCRF-CEM
# SF-268 = system: SF-268
# KM12 = system: KM12
# SNB-78 = system: SNB-78
# LXFL 529 = system: LXFL 529
# UACC-257 = system: UACC-257
# SNB-19 = system: SNB-19
# HT-29 = system: HT-29
# HCT-15 = system: HCT-15
# KM-20L2 = system: KM-20L2
# DLD-1 = system: DLD-1
# OVCAR-8 = system: OVCAR-8
# NCI-H23 = system: NCI-H23
# HCT-116 = system: HCT-116
# SW-620 = system: SW-620
# RXF 631 = system: RXF 631
# 786-0 = system: 786-0
# Malme-3M = system: Malme-3M
# M14 = system: M14
# HL-60 = system: HL-60
# K562 = system: K562
# A549 = system: A549
# HOP-92 = system: HOP-92
# DMS-114 = system: DMS-114
# A498 = system: A498
# OVCAR-4 = system: OVCAR-4
# UACC-62 = system: UACC-62
# UO-31 = system: UO-31
# SNB-75 = system: SNB-75
# HOP-62 = system: HOP-62
# EKVX = system: EKVX
# DMS-273 = system: DMS-273
# MOLT-4 = system: MOLT-4
# IGROV-1 = system: IGROV-1
# SR = system: SR
# ACHN = system: ACHN
# RXF 393 = system: RXF 393
# SK-MEL-2 = system: SK-MEL-2
# XF498 = system: XF498
# SK-OV-3 = system: SK-OV-3
# RPMI-8226 = system: RPMI-8226
structure (smiles),measurement,setting,value
COc1ccc(/N=N/c2c(-c3ccccc3)nn(C(=O)CC(=O)Nc3ccccc3Cl)c2-c2ccccc2)cc1,GI50,CAKI-1,> 100 µM (inactive)
same,GI50,HOP-18,> 100 µM (inactive)
same,GI50,M19-MEL,> 100 µM (inactive)
same,GI50,OVCAR-3,36.9 µM (inactive)
same,GI50,OVCAR-5,97.5 µM (inactive)
same,GI50,NCI-H522,> 100 µM (inactive)
same,GI50,SF-539,> 100 µM (inactive)
same,GI50,TK-10,77.6 µM (inactive)
same,GI50,LOX IMVI,> 100 µM (inactive)
same,GI50,NCI-H460,> 100 µM (inactive)
same,GI50,SK-MEL-28,> 100 µM (inactive)
same,GI50,SK-MEL-5,> 100 µM (inactive)
same,GI50,U-251,> 100 µM (inactive)
same,GI50,NCI-H226,> 100 µM (inactive)
same,GI50,SN12C,> 100 µM (inactive)
same,GI50,HCC 2998,> 100 µM (inactive)
same,GI50,COLO 205,> 100 µM (inactive)
same,GI50,SF-295,> 100 µM (inactive)
same,GI50,CCRF-CEM,30.8 µM (inactive)
same,GI50,SF-268,82.8 µM (inactive)
same,GI50,KM12,87.1 µM (inactive)
same,GI50,SNB-78,> 100 µM (inactive)
same,GI50,LXFL 529,> 100 µM (inactive)
same,GI50,UACC-257,> 100 µM (inactive)
same,GI50,SNB-19,> 100 µM (inactive)
same,GI50,HT-29,47.1 µM (inactive)
same,GI50,HCT-15,58.9 µM
same,GI50,KM-20L2,> 100 µM (inactive)
same,GI50,DLD-1,> 100 µM (inactive)
same,GI50,OVCAR-8,> 100 µM (inactive)
same,GI50,NCI-H23,> 100 µM (inactive)
same,GI50,HCT-116,> 100 µM (inactive)
same,GI50,SW-620,> 100 µM (inactive)
same,GI50,RXF 631,> 100 µM (inactive)
same,GI50,786-0,> 100 µM (inactive)
same,GI50,Malme-3M,> 100 µM (inactive)
same,GI50,M14,> 100 µM (inactive)
same,GI50,HL-60,22.6 µM (inactive)
same,GI50,K562,30.7 µM (inactive)
same,GI50,A549,> 100 µM (inactive)
same,GI50,HOP-92,20.6 µM (inactive)
same,GI50,DMS-114,25.9 µM (inactive)
same,GI50,A498,> 100 µM (inactive)
same,GI50,OVCAR-4,57 µM (inactive)
same,GI50,UACC-62,> 100 µM (inactive)
same,GI50,UO-31,42.9 µM (inactive)
same,GI50,SNB-75,6.12 µM (inactive)
same,GI50,HOP-62,> 100 µM (inactive)
same,GI50,EKVX,> 100 µM (inactive)
same,GI50,DMS-273,> 100 µM (inactive)
same,GI50,MOLT-4,3.42 µM (inactive)
same,GI50,IGROV-1,> 100 µM (inactive)
same,GI50,SR,2.82 µM (inactive)
same,GI50,ACHN,> 100 µM (inactive)
same,GI50,RXF 393,> 100 µM (inactive)
O=C1Nc2nc3ccccc3n2N=C2CCCC12 (stereo not drawn),GI50,CAKI-1,> 100 µM (inactive)
same,GI50,M19-MEL,> 100 µM (inactive)
same,GI50,OVCAR-3,> 100 µM (inactive)
same,GI50,OVCAR-5,> 100 µM (inactive)
same,GI50,SF-539,> 100 µM (inactive)
same,GI50,TK-10,> 100 µM (inactive)
same,GI50,LOX IMVI,> 100 µM (inactive)
same,GI50,NCI-H460,> 100 µM (inactive)
same,GI50,SK-MEL-28,> 100 µM (inactive)
same,GI50,SK-MEL-5,> 100 µM (inactive)
same,GI50,U-251,> 100 µM (inactive)
same,GI50,SN12C,> 100 µM (inactive)
same,GI50,HCC 2998,> 100 µM (inactive)
same,GI50,COLO 205,> 100 µM (inactive)
same,GI50,SF-295,> 100 µM (inactive)
same,GI50,CCRF-CEM,> 100 µM (inactive)
same,GI50,SK-MEL-2,> 100 µM (inactive)
same,GI50,SF-268,> 100 µM (inactive)
same,GI50,KM12,> 100 µM (inactive)
same,GI50,SNB-78,> 100 µM (inactive)
same,GI50,LXFL 529,> 100 µM (inactive)
same,GI50,UACC-257,> 100 µM (inactive)
same,GI50,SNB-19,> 100 µM (inactive)
same,GI50,HT-29,> 100 µM (inactive)
same,GI50,HCT-15,> 100 µM
same,GI50,KM-20L2,> 100 µM (inactive)
same,GI50,DLD-1,> 100 µM (inactive)
same,GI50,OVCAR-8,> 100 µM (inactive)
same,GI50,NCI-H23,> 100 µM (inactive)
same,GI50,HCT-116,> 100 µM (inactive)
same,GI50,SW-620,> 100 µM (inactive)
same,GI50,RXF 631,> 100 µM (inactive)
same,GI50,786-0,> 100 µM (inactive)
same,GI50,Malme-3M,> 100 µM (inactive)
same,GI50,XF498,> 100 µM (inactive)
same,GI50,M14,> 100 µM (inactive)
same,GI50,SK-OV-3,> 100 µM (inactive)
same,GI50,K562,> 100 µM (inactive)
same,GI50,A549,> 100 µM (inactive)
same,GI50,DMS-114,> 100 µM (inactive)
same,GI50,A498,> 100 µM (inactive)
same,GI50,RPMI-8226,> 100 µM (inactive)
same,GI50,OVCAR-4,> 100 µM (inactive)
same,GI50,UACC-62,> 100 µM (inactive)
same,GI50,UO-31,> 100 µM (inactive)
same,GI50,SNB-75,> 100 µM (inactive)
same,GI50,HOP-62,> 100 µM (inactive)
same,GI50,EKVX,> 100 µM (inactive)
same,GI50,DMS-273,> 100 µM (inactive)
same,GI50,MOLT-4,> 100 µM (inactive)
same,GI50,IGROV-1,> 100 µM (inactive)
same,GI50,ACHN,> 100 µM (inactive)
same,GI50,RXF 393,> 100 µM (inactive)
